# ChEMBL document CHEMBL1150528, “The heparin-like antiproliferative activity of sulfated tetrasaccharides is sensitive to structural variation” (Bioorg Med Chem Lett, 1995)
# pIC50: −log10 of the molar value.
# Key:
# Prothrombin = Prothrombin (Homo sapiens, UniProt P00734); experiment: Anticoagulant activity when interacted with Coagulation factor II
# Coagulation factor X = Coagulation factor X (Homo sapiens, UniProt P00742); experiment: Anticoagulant activity when interacted with Coagulation factor X
# Rattus norvegicus = species on record: Rattus norvegicus; experiment: Relative inhibitory activity (ri) was measured in rat smooth muscle cells (SMC) at 100 ug/mL in comparison to that of Heparin; assay type: functional
# Chain of Coagulation factor X (P00742 41-179 limits assumed): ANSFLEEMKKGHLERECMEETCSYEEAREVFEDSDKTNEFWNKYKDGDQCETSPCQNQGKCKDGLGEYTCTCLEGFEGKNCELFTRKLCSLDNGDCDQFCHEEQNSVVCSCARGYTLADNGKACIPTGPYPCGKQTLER
# Chain of Coagulation factor X (P00742 235-488 limits assumed): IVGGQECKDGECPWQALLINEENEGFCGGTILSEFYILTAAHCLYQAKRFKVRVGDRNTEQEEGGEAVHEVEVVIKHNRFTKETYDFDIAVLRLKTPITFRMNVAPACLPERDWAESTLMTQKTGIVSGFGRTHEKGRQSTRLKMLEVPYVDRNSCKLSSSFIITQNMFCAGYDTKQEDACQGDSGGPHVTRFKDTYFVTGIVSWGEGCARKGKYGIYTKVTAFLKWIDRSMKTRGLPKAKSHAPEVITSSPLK
SMILES,pIC50 (Prothrombin),pIC50 (Coagulation factor X),Relative inhibitory activity (Rattus norvegicus)
O=S(=O)([O-])OC[C@@H]1O[C@@H](O[C@H]2O[C@@H](COS(=O)(=O)[O-])[C@@H](O[C@@H]3O[C@@H](CO[C@H]4O[C@@H](COS(=O)(=O)[O-])[C@H](OS(=O)(=O)[O-])[C@H](OS(=O)(=O)[O-])[C@@H]4OS(=O)(=O)[O-])[C@@H](OS(=O)(=O)[O-])[C@H](OS(=O)(=O)[O-])[C@@H]3OS(=O)(=O)[O-])[C@H](OS(=O)(=O)[O-])[C@@H]2OS(=O)(=O)[O-])[C@@H](OS(=O)(=O)[O-])[C@@H](OS(=O)(=O)[O-])[C@H]1OS(=O)(=O)[O-].[Na+].[Na+].[Na+].[Na+].[Na+].[Na+].[Na+].[Na+].[Na+].[Na+].[Na+].[Na+].[Na+].[Na+] (stereo in doubt; 9),< 3.32,< 3.32,0.8
O=S(=O)([O-])OC[C@@H]1O[C@@H](O[C@H]2O[C@@H](COS(=O)(=O)[O-])[C@@H](O[C@@H]3O[C@@H](CO[C@H]4O[C@@H](COS(=O)(=O)[O-])[C@H](OS(=O)(=O)[O-])[C@H](OS(=O)(=O)[O-])[C@@H]4OS(=O)(=O)[O-])[C@@H](OS(=O)(=O)[O-])[C@H](OS(=O)(=O)[O-])[C@@H]3OS(=O)(=O)[O-])[C@H](OS(=O)(=O)[O-])[C@@H]2OS(=O)(=O)[O-])[C@@H](OS(=O)(=O)[O-])[C@@H](OS(=O)(=O)[O-])[C@H]1OS(=O)(=O)[O-].[Na+].[Na+].[Na+].[Na+].[Na+].[Na+].[Na+].[Na+].[Na+].[Na+].[Na+].[Na+].[Na+].[Na+] (stereo in doubt; 12),< 3.32,< 3.32,0.6
O=S(=O)([O-])OC[C@@H]1O[C@H](O[C@H]2O[C@@H](COS(=O)(=O)[O-])[C@@H](O[C@@H]3O[C@@H](COS(=O)(=O)[O-])[C@@H](OS(=O)(=O)[O-])[C@H](OS(=O)(=O)[O-])[C@@H]3O[C@@H]3O[C@@H](COS(=O)(=O)[O-])[C@@H](OS(=O)(=O)[O-])[C@H](OS(=O)(=O)[O-])[C@@H]3OS(=O)(=O)[O-])[C@H](OS(=O)(=O)[O-])[C@@H]2OS(=O)(=O)[O-])[C@@H](OS(=O)(=O)[O-])[C@@H](OS(=O)(=O)[O-])[C@H]1OS(=O)(=O)[O-].[Na+].[Na+].[Na+].[Na+].[Na+].[Na+].[Na+].[Na+].[Na+].[Na+].[Na+].[Na+].[Na+].[Na+],< 3.32,< 3.32,0.3
O=S(=O)([O-])OC[C@@H]1O[C@@H](O[C@@H]2[C@H](OS(=O)(=O)[O-])[C@@H](O[C@H]3[C@H](OS(=O)(=O)[O-])[C@H](OS(=O)(=O)[O-])[C@@H](O[C@H]4O[C@@H](COS(=O)(=O)[O-])[C@H](OS(=O)(=O)[O-])[C@H](OS(=O)(=O)[O-])[C@@H]4OS(=O)(=O)[O-])O[C@H]3COS(=O)(=O)[O-])OC[C@H]2OS(=O)(=O)[O-])[C@@H](OS(=O)(=O)[O-])[C@@H](OS(=O)(=O)[O-])[C@H]1OS(=O)(=O)[O-].[Na+].[Na+].[Na+].[Na+].[Na+].[Na+].[Na+].[Na+].[Na+].[Na+].[Na+].[Na+].[Na+],< 3.29,< 3.29,0.7
O=S(=O)(O)OC[C@@H]1O[C@H](O[C@H]2O[C@@H](COS(=O)(=O)O)[C@@H](O[C@@H]3O[C@@H](COS(=O)(=O)O)[C@@H](OS(=O)(=O)O)[C@H](OS(=O)(=O)O)[C@@H]3O[C@H]3O[C@@H](COS(=O)(=O)O)[C@H](OS(=O)(=O)O)[C@H](OS(=O)(=O)O)[C@@H]3OS(=O)(=O)O)[C@H](OS(=O)(=O)O)[C@@H]2OS(=O)(=O)O)[C@@H](OS(=O)(=O)O)[C@@H](OS(=O)(=O)O)[C@H]1OS(=O)(=O)O (stereo in doubt; 14),< 3.32,< 3.32,–
O=S(=O)([O-])OC[C@@H]1O[C@@H](O[C@H]2O[C@@H](COS(=O)(=O)[O-])[C@@H](O[C@@H]3O[C@@H](CO[C@H]4O[C@@H](COS(=O)(=O)[O-])[C@@H](OS(=O)(=O)[O-])[C@H](OS(=O)(=O)[O-])[C@@H]4OS(=O)(=O)[O-])[C@@H](OS(=O)(=O)[O-])[C@H](OS(=O)(=O)[O-])[C@@H]3OS(=O)(=O)[O-])[C@H](OS(=O)(=O)[O-])[C@@H]2OS(=O)(=O)[O-])[C@@H](OS(=O)(=O)[O-])[C@@H](OS(=O)(=O)[O-])[C@H]1OS(=O)(=O)[O-].[Na+].[Na+].[Na+].[Na+].[Na+].[Na+].[Na+].[Na+].[Na+].[Na+].[Na+].[Na+].[Na+].[Na+],< 3.32,< 3.32,0.9
O=S(=O)([O-])OC[C@@H]1O[C@H](O[C@H]2O[C@@H](COS(=O)(=O)[O-])[C@@H](O[C@@H]3O[C@@H](COS(=O)(=O)[O-])[C@@H](OS(=O)(=O)[O-])[C@H](OS(=O)(=O)[O-])[C@@H]3O[C@H]3O[C@@H](COS(=O)(=O)[O-])[C@H](OS(=O)(=O)[O-])[C@H](OS(=O)(=O)[O-])[C@@H]3OS(=O)(=O)[O-])[C@H](OS(=O)(=O)[O-])[C@@H]2OS(=O)(=O)[O-])[C@@H](OS(=O)(=O)[O-])[C@@H](OS(=O)(=O)[O-])[C@H]1OS(=O)(=O)[O-].[Na+].[Na+].[Na+].[Na+].[Na+].[Na+].[Na+].[Na+].[Na+].[Na+].[Na+].[Na+].[Na+].[Na+] (stereo in doubt; 13),< 3.32,< 3.32,0.5
C[C@@H]1O[C@@H](OC[C@@H]2O[C@@H](O[C@H]3[C@H](OS(=O)(=O)[O-])[C@H](OS(=O)(=O)[O-])[C@@H](O[C@H]4O[C@@H](COS(=O)(=O)[O-])[C@H](OS(=O)(=O)[O-])[C@H](OS(=O)(=O)[O-])[C@@H]4OS(=O)(=O)[O-])O[C@H]3COS(=O)(=O)[O-])[C@@H](OS(=O)(=O)[O-])[C@@H](OS(=O)(=O)[O-])[C@@H]2OS(=O)(=O)[O-])[C@H](OS(=O)(=O)[O-])[C@@H](OS(=O)(=O)[O-])[C@H]1OS(=O)(=O)[O-].[Na+].[Na+].[Na+].[Na+].[Na+].[Na+].[Na+].[Na+].[Na+].[Na+].[Na+].[Na+].[Na+],< 3.30,< 3.30,0.7
O=S(=O)([O-])OC[C@@H]1O[C@H](O[C@H]2O[C@@H](COS(=O)(=O)[O-])[C@@H](O[C@@H]3O[C@@H](COS(=O)(=O)[O-])[C@@H](OS(=O)(=O)[O-])[C@H](OS(=O)(=O)[O-])[C@@H]3O[C@H]3O[C@@H](COS(=O)(=O)[O-])[C@H](OS(=O)(=O)[O-])[C@H](OS(=O)(=O)[O-])[C@@H]3OS(=O)(=O)[O-])[C@H](OS(=O)(=O)[O-])[C@@H]2OS(=O)(=O)[O-])[C@@H](OS(=O)(=O)[O-])[C@@H](OS(=O)(=O)[O-])[C@H]1OS(=O)(=O)[O-].[Na+].[Na+].[Na+].[Na+].[Na+].[Na+].[Na+].[Na+].[Na+].[Na+].[Na+].[Na+].[Na+].[Na+] (stereo in doubt; 2),< 3.32,< 3.32,0.9
